Assay results from patent US20230218618A1, “ADMINISTRATION OF SUMO-ACTIVATING ENZYME INHIBITOR AND ANTI-CD38 ANTIBODIES” (MILLENNIUM PHARMACEUTICALS, INC., priority 2020, published 2023).

Tests used:
[1] = test system: LP-1 human multiple myeloma cell line; experiment: Study 3: LP-1 xenograft human multiple myeloma subcutaneous tumor model; format: in vivo, CB17 SCID mice; conditions: for GRI%: vs vehicle
Procedure: (§1) Low tumor volumes can cause problems with the data analysis, so all measurements below 25 cubic mm (including 0 values) were excluded from the analysis. After this exclusion step, the tumor volume was assumed to follow an exponential growth model. More specifically, for a given animal and treatment group,
(§2) Pairwise comparisons were performed, where the mean growth rates were compared for various pairs of treatment conditions. The results were summarized using the growth rate inhibition (GRI). Suppose µT and µC are the mean tumor growth rates for the treatment and reference groups, respectively. Define
(§3) Here, µAB, µA, µB, and µControl are the mean growth rates for the combination, drug A, drug B, and control groups, respectively. As before, µv is the mean tumor growth rate for the vehicle group, which in most cases is the same as the control group. The standard error of the synergy score was calculated as the square root of the sum of squared standard errors across the four groups. The degrees of freedom were estimated using the Welch-Satterthwaite equation. A hypothesis test was performed to determine if the synergy score differed from 0. P-values were calculated by dividing the synergy score by its standard error and tested against a t-distribution (two-tailed) with the above-calculated degrees of freedom. A P value of less than 0.05 is statistically significant.
(§4) The combination results can be interpreted as follows. Statistically significant negative synergy scores indicate a synergistic combination (“Syn.”). Statistically significant positive synergy scores indicate a sub-additive combination (“Sub-add.”) when the combination performs better (i.e. has a lower growth rate) than the best performing single agent. Statistically significant positive synergy scores indicate an antagonistic combination (“Antag.”) when the combination performs worse than the best performing single agent. Scores that are not statistically significant should be considered additive (“Add.”).
LP-1 is a human multiple myeloma cell line. A LP-1 human xenograft tumor model was generated by subcutaneous inoculation with […] LP-1 cells (cell suspension) in 7 weeks old female CB17 SCID mice (Charles River Laboratories, 251 Ballardvale St., Wilmington, MA) in the flank. When the mean tumor volume reached approximately 100 mm^3, the animals were randomized into one vehicle control and seven treatment groups (n=8/group). Mice were then dosed with 20% HPβCD or Compound I-263a or daratumumab over a 35-day period. Tumor growth and body weight were measured twice per week during the treatment and post-treatment periods, and mice were humanely euthanized once they had reached their humane endpoint.
A 0.75 mg/mL stock solution of I-263a was formulated weekly in 20% HPβCD and administered IV based on an average body weight using a 0.2 mL dosing volume. Final dose I-263a received was 7.5 mg/kg. I-263a was administered on a BIW schedule for 5 weeks (Days 1, 4, 8, 11, 15, 18, 22, 25, 29 and 33). Daratumumab (anti-CD38 antibody) (Myoderm Medical Supplies, 48 E Main St., Norristown, PA 19401) was purchased at the beginning of the study and stored at 4° C. according to manufacturer’s instructions. Final dose daratumumab received was 2.5 mg/kg, 7.5 mg/kg, and 20 mg/kg based on average body weight. Daratumumab was administered intraperitoneally (IP) using a 0.1 mL dosing volume, on a BIW schedule for 5 weeks (Days 1, 4, 8, 11, 15, 18, 22, 25, 29 and 33).
(§5) Tumors were measured twice weekly using Vernier calipers. Tumor volumes were calculated using standard equation: V = W^2 × L/2, where V = volume, W = width, and L = length for the tumor. When mean tumor volumes reached approximately 100 mm^3, mice were randomized into control and treatment groups. Mice were randomized into 8 groups (n=8/group) and dosed with vehicle (20% HPβCD), I-263a, daratumumab, or the combination of I-263a plus daratumumab at doses and schedules as described above. […]

[2] = test system: NCI-H929 human multiple myeloma cell line; experiment: Study 5: NCI-H929 xenograft human multiple myeloma subcutaneous tumor model; format: in vivo, SCID mice; conditions: for Tumor growth compared to vehicle (pairwise comparison): I-263a 7.5 mg/kg BIW 2 weeks (p > 0.05), daratumumab 2.5, 7.5 or 20 mg/kg BIW 2 weeks alone or combined with I-263a (p < 0.001); for GRI%: vs vehicle
Procedure: as §1, §2, §3, §4
NCI-H929 is a human multiple myeloma cell line. A NCI-H929 human xenograft tumor model was generated by subcutaneous inoculation with 1.0 × 10^7 NCI-H929 cells (cell suspension) in 7 weeks old female SCID mice (Vital River Laboratory Animal Technology Co., Ltd, Beijing, China) in the flank. When the mean tumor volume reached approximately 180 mm^3, the animals were randomized into one vehicle control and seven treatment groups (n=10/group). Mice were then dosed with 20% HPβCD or Compound I-263a or daratumumab over a 14-day period. Tumor growth and body weight were measured twice per week during the treatment and post-treatment periods, and mice were humanely euthanized once they had reached their humane endpoint.
A 1.5 mg/mL stock solution of I-263a was formulated weekly in 20% HPβCD and administered IV based on exact animal body weight on each day of treatment, using a dosing volume of 5 mL/kg body weight. Final dose I-263a received was 7.5 mg/kg. I-263a was administered on a BIW schedule for 2 weeks (Days 0, 3, 7, and 10). Daratumumab (anti-CD38 antibody) (Janssen Biotech, Inc., Horsham, PA) was stored at 4° C. according to manufacturer’s instructions. Final dose daratumumab received was 2.5 mg/kg, 7.5 mg/kg, and 20 mg/kg based on average body weight. Daratumumab was administered intraperitoneally (IP) using a 0.1 mL dosing volume, on a BIW schedule for 2 weeks (Days 0, 3, 7, and 10).
as §5, with “180” for “100”, “above. Tumor size and body weight were measured twice a week for the duration of the study.” for “above.”

[3] = I-263a 7.5 mg/kg BIW 5 weeks (p < 0.01), daratumumab 20 mg/kg (p < 0.01), I-263a 7.5 mg/kg BIW with daratumumab 2.5, 7.5 or 20 mg/kg (p < 0.001)

Molecule	Tumor growth compared to vehicle treated mice (pairwise comparison) [1, 3]	Tumor volume on Day 17 (± SEM) ([1]; I-263a 7.5 mg/kg BIW IV)	GRI% ([1]; I-263a 7.5 mg/kg BIW IV) [%]	Tumor growth compared to vehicle (pairwise comparison) [2]	Tumor volume on Day 14 (± SEM) ([2]; I-263a 7.5 mg/kg BIW IV)	GRI% ([2]; I-263a 7.5 mg/kg BIW IV) [%]	Tumor volume on Day 17 (± SEM) ([1]; Daratumumab 2.5 mg/kg BIW IP)	GRI% ([1]; Daratumumab 2.5 mg/kg BIW IP) [%]	Tumor volume on Day 17 (± SEM) ([1]; Daratumumab 7.5 mg/kg BIW IP)	GRI% ([1]; Daratumumab 7.5 mg/kg BIW IP) [%]	Tumor volume on Day 17 (± SEM) ([1]; Daratumumab 20 mg/kg BIW IP)	GRI% ([1]; Daratumumab 20 mg/kg BIW IP) [%]	Tumor growth compared to vehicle treated mice (pairwise comparison) ([1]; daratumumab 2.5 mg/kg or 7.5 mg/kg single agent, p > 0.05)	Tumor volume on Day 14 (± SEM) ([2]; Daratumumab 2.5 mg/kg BIW IP)	GRI% ([2]; Daratumumab 2.5 mg/kg BIW IP) [%]	Tumor volume on Day 14 (± SEM) ([2]; Daratumumab 7.5 mg/kg BIW IP)	GRI% ([2]; Daratumumab 7.5 mg/kg BIW IP) [%]	Tumor volume on Day 14 (± SEM) ([2]; Daratumumab 20 mg/kg BIW IP)	GRI% ([2]; Daratumumab 20 mg/kg BIW IP) [%]
Cc1sc(C(=O)c2cncnc2N[C@@H]2C[C@H](COS(N)(=O)=O)[C@@H](O)C2)cc1[C@@H]1NCCc2ccc(Cl)cc21 [Compound I-263a, [(1R,2S,4R)-4-{[5-({4-[(1R)-7-chloro-1,2,3,4-tetrahydroisoquinolin-1-yl]-5-methyl-2-thienyl}carbonyl)pyrimidin-4-yl]amino}-2-hydroxycyclopentyl]methyl sulfamate]	significant tumor growth inhibition	1043.3 ± 260.1	15	not significantly different from vehicle	1763.8 ± 187.6	6	–	–	–	–	–	–	–	–	–	–	–	–	–
Daratumumab: immunoglobulin G1 kappa (IgG1κ) human monoclonal antibody against CD38 antigen	significant tumor growth inhibition	–	–	significantly inhibited tumor growth curves	–	–	988.8 ± 183.4	16	1204.8 ± 190.1	8	1078 ± 207.7	10	not significantly different from vehicle treated mice	999.5 ± 187.7	37	838.3 ± 142.8	45	656.2 ± 127.2	54
